Tests used:
[1] = system: HT-29 (human colorectal adenocarcinoma) cells; assay: MTT assay, HT-29 cells; assay type: cell-based; conditions: MTT assay, 48 h incubation; read-out: IC50 (mean ± SD), HT-29, MTT
Procedure: (§1) The cell proliferations of ligand precursors and organotin(IV) compounds were evaluated with the aid of MTT (3-(4,5-dimethylthiazol-2-yl)-2,5-12 diphenyltetrazolium bromide) and CV (crystal violet) assays toward prostate (PC-3), colon (HT-29), breast (MCF-7) and hepatic (HepG2) cancer cell lines, and normal mouse embryonic fibroblast cells (NIH 3T3). The cells were cultivated in T75 flasks containing 10 mL of complete medium and kept at 37 °C and 5% CO2 […]. The nutrient medium was RPMI-1640 (PAA Laboratories) supplemented with 10% foetal bovine serum, L-glutamine, and penicillin/streptomycin (Sigma). Afterward, 5.000 cells of PC-3 and MCF-7 and 1.500 cells of HT-29 and HepG2 were transferred into 96 well-plates and used for MTT and CV assays. For microscopy investigations as well as FACS measurements (except for ROS/RNS measurements), MCF-7 cells were seeded overnight in 6-well plates (150,000 cells/well) in […] of complete medium. […] In all assays, control cells were untreated MCF-7 cells incubated for the same time period as treated cells and treated with appropriate reagents in various assays. BD FACS Aria III was used for flow cytometry experiments and results were analysed using BD FACSDiva software (BD Biosciences, Heidelberg, Germany) and Cyflogic (V 1.2.1, CyFlo Ltd., Turku, Finland). A fluorescence microscope Invitrogen EVOS FL 2 Auto 2 Cell Imaging System was used for visualization of the cells as well as for detection of fluorescence in the cells.
(§2) Ligands HL1‒HL3, organotin(IV) compounds, and cisplatin were investigated in 9 different concentrations (100, 50, 10, 5, 1, 0.5, 0.1, 0.05, 0.01 μM). Using the complete medium, each stock solution of the test compounds (20 mM in DMSO) was diluted to obtain the working solution. The final concentration of DMSO never overstepped 0.5%, which is non-toxic to the cells. Three technical replicates were performed for each concentration. The treated cells were incubated for 48 h at 37 °C under 5% CO2 and the viability of the cells was determined using MTT and CV assays according to the literature procedure. The IC50 values, defined as 50% inhibitory concentration, were calculated with a four-parameter logistic function and presented in a mean. All experiments were performed in triplicate.

[2] = system: MCF-7 (breast cancer) cells; assay: MTT assay, MCF-7 cells; assay type: cell-based, human; conditions: for IC50: MTT assay, 48 h incubation, read-out: IC50 (mean ± SD), MCF-7, MTT
Procedure: as §1, §2

[3] = system: HepG2 (hepatocellular cancer) cells; assay: MTT assay, HepG2 cells; assay type: cell-based, human; conditions: MTT assay, 48 h incubation; read-out: IC50 (mean ± SD), HepG2, MTT
Procedure: as §1, §2

[4] = system: NIH3T3 (normal mouse embryonic fibroblast) cells; assay: MTT assay, NIH3T3 cells; assay type: cell-based; conditions: MTT assay, 48 h incubation, normal cells; read-out: IC50 (mean ± SD), NIH3T3, MTT
Procedure: as §1, §2

[5] = system: PC-3 (human prostate cancer) cells; assay: CV (crystal violet) assay, PC-3 cells; assay type: cell-based; conditions: CV assay, 48 h incubation; read-out: IC50 (mean ± SD), PC-3, CV
Procedure: as §1, §2

[6] = system: HT-29 (human colorectal adenocarcinoma) cells; assay: CV (crystal violet) assay, HT-29 cells; assay type: cell-based; conditions: CV assay, 48 h incubation; read-out: IC50 (mean ± SD), HT-29, CV
Procedure: as §1, §2

[7] = system: MCF-7 (breast cancer) cells; assay: CV (crystal violet) assay, MCF-7 cells; assay type: cell-based, human; conditions: for IC50: CV assay, 48 h incubation, read-out: IC50 (mean ± SD), MCF-7, CV
Procedure: as §1, §2

[8] = system: NIH3T3 (normal mouse embryonic fibroblast) cells; assay: CV (crystal violet) assay, NIH3T3 cells; assay type: cell-based; conditions: CV assay, 48 h incubation, normal cells; read-out: IC50 (mean ± SD), NIH3T3, CV
Procedure: as §1, §2

[9] = system: MCF-7 cells; assay: Cell cycle analysis (DAPI, flow cytometry); assay type: cell-based, human; conditions: 48 h, IC50 dose
Procedure: The mode of action was further investigated by analysing the effects of Ph3SnL1 and cisplatin on the cell cycle phase distribution of MCF-7 cells. This was evaluated by cytofluorimetric analysis using DAPI staining. […] While cisplatin acts on DNA (among other effects), the lipophilic cationic nature of triphenyltin(IV) may guide it preferentially to mitochondria to intervene with cells’ energy metabolism.
The Falcon tubes were centrifuged for 3 min at 1000 rpm and the supernatant was discarded. Afterwards, the cells were washed with 1 mL of PBS, centrifuged for 3 min at 1000 rpm and the supernatant was discarded. The cells were resuspended in 300 μL of ice-cold PBS buffer and then fixed by adding them dropwise to 700 μL of ice-cold absolute ethanol. The cells were stored for 24 h at 4 °C, then centrifuged for 3 min at 1000 rpm, washed with PBS and stained with 1 mL of DAPI (4′,6-diamidino-2-phenylindole) working solution [39]. The prepared cells were incubated at room temperature for 10 min and analysed by flow cytometry.

[10] = system: MCF-7 cells; assay: Morphological analysis (AO and DAPI staining); assay type: cell-based, human; conditions: 24 h, IC50 or 2 × IC50
Procedure: The morphological changes of MCF-7 cell death induced by Ph3SnL1 and cisplatin were studied by AO (acridine orange) and DAPI (4′,6-diamidino-2-phenylindole) staining, and examined under a fluorescence microscope. Acridine orange can cross the cell membrane and viable and early apoptotic cells can be detected. Chromatin condensation, seen as dense green areas, or membrane blebbing, both appearing in apoptosis, is easily proven by AO staining. After 24 h of treatment (IC50 and 2 × IC50 concentrations) the cells were stained with acridine orange (3 μg/mL AO in PBS), and observed with a fluorescence microscope (Fluorescence microscope-Invitrogen EVOS FL 2 Auto 2 Cell Imaging System). On the other hand, for the DAPI assay 0.5 mL of Triton (0.1% in PBS) was added to the treated cells after the fixing the cells with 0.5 mL of 4% paraformaldehyde (PFA) for 8 min. Thereafter, 0.5 mL of DAPI solution was used to stain the cells for 5 min in the dark. The morphological characteristics were visualized under a fluorescence microscope (Fluorescence microscope-Invitrogen EVOS FL 2 Auto 2 Cell Imaging System).

[11] = system: MCF-7 cells; assay: Activation of caspases (apostat, flow cytometry); assay type: cell-based, human
From the text: The activation of caspase is closely linked to cell apoptosis, the controlled cell death, via the mitochondrial pathway or cell death receptor [23, 24]. […] Due to this, it can be concluded that cell death is accomplished through caspase-independent apoptosis. Moreover, as MCF-7 cell line is caspase-3 deficient, this was an anticipated result. Besides, the accomplishment of apoptosis induced with Ph3SnL1 in MCF-7 cells (confirmed with AO and DAPI assays) was not disturbed as this type of cell death may be activated through other death signals not involving caspase activation.
The cells were resuspended in 1 mL of PBS and analysed with flow cytometry.

| SMILES | IC50 [1] [µM] | IC50 [2] [µM] | IC50 [3] [µM] | IC50 [4] [µM] | IC50 [5] [µM] | IC50 [6] [µM] | IC50 [7] [µM] | IC50 [8] [µM] | cell population in G1/G0 phase [9] | cell population in S and G2/M phases [9] | population of cells in the sub-G1 phase [9] | fold higher activity compared to cisplatin against MCF-7 ([2]; Table 1 IC50 values, 48 h) | times more powerful antiproliferative activity than cisplatin in MCF-7 cells ([7]; CV assay IC50 values) | morphological changes (AO and DAPI staining) [10] | mode of cell death [11] | caspase activation (apostat) ([11]; 48 h, IC50 concentration) | cell cycle phase distribution [9] |
| --- | --- | --- | --- | --- | --- | --- | --- | --- | --- | --- | --- | --- | --- | --- | --- | --- | --- |
| N.N.[Cl][Pt][Cl] [cisplatin, reference compound] | 14.2 ± 0.73 | 15.2 ± 1.04 | 3.47 ± 0.46 | 8.81 ± 0.51 | 13 ± 0.45 | 16 ± 0.95 | 15.8 ± 0.55 | 14.2 ± 1.95 | considerable decrease | increase | did not lead to any observable changes | – | – | – | – | – | – |
| O=C(CCc1nc(-c2ccccc2)c(-c2ccccc2)o1)[O][Sn]([c]1ccccc1)([c]1ccccc1)[c]1ccccc1 [Ph3SnL1, (3-(4,5-Diphenyloxazol-2-yl)propanoato)triphenyltin(IV)] | 0.237 ± 0.012 | 0.132 ± 0.021 | 0.146 ± 0.028 | 2.17 ± 0.53 | 0.556 ± 0.038 | 0.465 ± 0.046 | 0.218 ± 0.025 | 2.66 ± 0.52 | – | – | – | up to 120 fold | up to 70 times | notable morphological changes | induces caspase-independent apoptosis | did not induce the activation of caspases | does not lead to any significant changes in the cell cycle distribution |
